One assay concerns the target CDK2 (human) (UniProt P24941). Description: Enzyme Assay. The following applies: concentration not given here.
A further assay has as its target ROCK2 (human) (UniProt O75116). Kind of assay: Inhibition of ROCK2 Kinase Activity. The settings on record: concentration not given here.
The target of assay [1] is MAPK14 (UniProt Q16539). Kind of assay: p38 Inhibition Assay (in Vitro).
For assay [2], the target named is EGFR (UniProt P00533).
In the next assay the test system is PIK3CG (murine). Kind of assay: Inhibition of C5a-Mediated AKT Phosphorylation in Raw 264.7 Macrophages.
Assay [3] concerns the target EGFR (human) (UniProt P00533).
Assay [4] has as its target MAPK14 (human) (UniProt Q16539). Description: TNF Inhibition (PBMC). The settings on record: for inhibition: concentration not given here.
The target of assay [5] is EGFR (Human), P00533 [T790M/L858R].
Assay [6] has as its target MAPK14 (UniProt Q16539). Description: Inhibition of p38 Kinase Activity.
The target of assay [7] is EGFR (human) (UniProt P00533). The following applies: hn5.
EGFR (human), sequence (P00533 whole entry, looked up): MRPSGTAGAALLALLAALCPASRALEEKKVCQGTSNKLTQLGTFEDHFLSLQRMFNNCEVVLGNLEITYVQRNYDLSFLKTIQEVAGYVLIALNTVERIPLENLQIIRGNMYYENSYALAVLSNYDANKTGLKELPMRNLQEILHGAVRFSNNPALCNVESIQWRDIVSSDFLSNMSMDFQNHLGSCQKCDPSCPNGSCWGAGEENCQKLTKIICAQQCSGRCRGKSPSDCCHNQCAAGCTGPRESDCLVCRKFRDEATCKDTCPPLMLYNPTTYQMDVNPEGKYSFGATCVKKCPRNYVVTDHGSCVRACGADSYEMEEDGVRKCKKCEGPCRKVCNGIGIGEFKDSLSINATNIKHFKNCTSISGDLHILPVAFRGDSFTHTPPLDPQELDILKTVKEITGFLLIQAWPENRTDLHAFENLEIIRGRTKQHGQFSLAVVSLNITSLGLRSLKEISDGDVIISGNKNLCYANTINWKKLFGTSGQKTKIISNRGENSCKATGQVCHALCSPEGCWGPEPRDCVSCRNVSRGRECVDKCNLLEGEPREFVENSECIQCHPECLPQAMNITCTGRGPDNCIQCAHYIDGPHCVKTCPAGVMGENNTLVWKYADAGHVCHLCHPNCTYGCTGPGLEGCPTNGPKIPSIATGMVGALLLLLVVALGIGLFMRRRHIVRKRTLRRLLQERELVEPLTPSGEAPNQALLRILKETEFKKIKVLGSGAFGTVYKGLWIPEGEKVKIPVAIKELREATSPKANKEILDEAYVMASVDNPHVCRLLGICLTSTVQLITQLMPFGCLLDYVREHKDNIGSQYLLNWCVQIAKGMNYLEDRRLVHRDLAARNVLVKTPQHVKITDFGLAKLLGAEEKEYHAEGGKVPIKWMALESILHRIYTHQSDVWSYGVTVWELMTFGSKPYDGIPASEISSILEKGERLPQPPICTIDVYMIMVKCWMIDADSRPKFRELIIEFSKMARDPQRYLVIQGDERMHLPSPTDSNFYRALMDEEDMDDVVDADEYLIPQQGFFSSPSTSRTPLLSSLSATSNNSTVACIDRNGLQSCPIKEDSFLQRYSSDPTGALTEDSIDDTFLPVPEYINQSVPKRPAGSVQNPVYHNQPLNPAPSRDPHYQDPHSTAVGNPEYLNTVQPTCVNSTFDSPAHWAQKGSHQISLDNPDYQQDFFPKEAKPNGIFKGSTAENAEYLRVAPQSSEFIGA
The target in another assay is EGFR (murine) (UniProt P00533). The settings on record: f/l herc cells.
EGFR (murine), sequence (P00533 whole entry, looked up): as above
Another assay has as its target ROCK2 (UniProt O75116). Description: Inhibition of ROCK2 Kinase Activity. The following applies: for inhibition: concentration not given here.
For assay [8], the target named is EGFR (UniProt P00533). The following applies: concentration not given here.
For assay [9], the target named is EGFR (UniProt P00533). This is another data set of the same source.
Assay [10] has as its target MAPK14 (UniProt Q16539). Kind of assay: MAPK14 Kinase Inhibition.
Another assay has as its target EGFR (mouse) (UniProt P00533). The following applies: swiss 3t3 fibroblast.
Assay [11] addresses MAPK14 (UniProt Q16539). Kind of assay: p38 Inhibition.
Assay [12] addresses MAPK14 (human) (UniProt Q16539). Description: p38-alpha Kinase Inhibition. The settings on record: COS-1.
The next assay deals with EGFR (Balb/c mice) (UniProt P00533).
The target of another assay is PIK3CG (UniProt P48736). Description: Inhibition of PIK3CG Kinase Activity.

In brackets after ≈: the same amount, converted by molar mass.

ROCK2, sequence (O75116 whole entry, looked up): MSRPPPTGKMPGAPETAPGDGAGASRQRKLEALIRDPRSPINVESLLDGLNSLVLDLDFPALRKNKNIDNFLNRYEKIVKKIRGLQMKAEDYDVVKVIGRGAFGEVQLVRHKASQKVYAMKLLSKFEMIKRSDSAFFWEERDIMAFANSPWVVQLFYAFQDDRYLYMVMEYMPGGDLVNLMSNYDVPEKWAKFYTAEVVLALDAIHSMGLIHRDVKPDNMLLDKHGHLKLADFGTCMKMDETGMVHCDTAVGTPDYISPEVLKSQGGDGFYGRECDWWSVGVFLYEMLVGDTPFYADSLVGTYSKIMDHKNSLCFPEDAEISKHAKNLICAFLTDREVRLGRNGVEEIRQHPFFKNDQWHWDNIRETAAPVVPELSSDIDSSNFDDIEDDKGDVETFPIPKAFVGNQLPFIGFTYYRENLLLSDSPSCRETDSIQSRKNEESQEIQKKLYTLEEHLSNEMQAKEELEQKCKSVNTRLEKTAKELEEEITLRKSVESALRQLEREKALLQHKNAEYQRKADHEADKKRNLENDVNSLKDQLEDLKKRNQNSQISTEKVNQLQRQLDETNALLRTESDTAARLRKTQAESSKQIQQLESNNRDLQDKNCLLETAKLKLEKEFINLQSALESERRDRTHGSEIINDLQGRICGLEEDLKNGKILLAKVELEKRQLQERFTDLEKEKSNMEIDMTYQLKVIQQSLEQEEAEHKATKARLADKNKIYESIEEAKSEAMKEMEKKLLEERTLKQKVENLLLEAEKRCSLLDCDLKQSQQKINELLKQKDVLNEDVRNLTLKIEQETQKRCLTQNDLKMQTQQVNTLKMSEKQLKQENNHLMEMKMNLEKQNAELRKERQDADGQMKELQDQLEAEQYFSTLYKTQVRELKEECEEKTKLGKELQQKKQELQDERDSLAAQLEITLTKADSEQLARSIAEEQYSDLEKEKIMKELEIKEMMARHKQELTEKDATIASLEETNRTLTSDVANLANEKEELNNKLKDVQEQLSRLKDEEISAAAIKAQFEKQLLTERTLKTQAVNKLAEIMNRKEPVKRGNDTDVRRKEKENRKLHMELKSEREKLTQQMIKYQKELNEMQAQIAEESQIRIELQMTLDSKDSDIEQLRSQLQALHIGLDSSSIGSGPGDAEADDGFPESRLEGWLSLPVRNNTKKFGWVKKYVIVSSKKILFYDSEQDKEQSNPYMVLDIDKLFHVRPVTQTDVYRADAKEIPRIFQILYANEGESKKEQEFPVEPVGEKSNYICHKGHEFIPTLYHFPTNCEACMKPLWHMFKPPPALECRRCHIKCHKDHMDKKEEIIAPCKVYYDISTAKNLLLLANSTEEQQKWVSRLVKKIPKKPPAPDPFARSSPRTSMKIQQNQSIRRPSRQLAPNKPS
MAPK14, sequence (Q16539 whole entry, looked up): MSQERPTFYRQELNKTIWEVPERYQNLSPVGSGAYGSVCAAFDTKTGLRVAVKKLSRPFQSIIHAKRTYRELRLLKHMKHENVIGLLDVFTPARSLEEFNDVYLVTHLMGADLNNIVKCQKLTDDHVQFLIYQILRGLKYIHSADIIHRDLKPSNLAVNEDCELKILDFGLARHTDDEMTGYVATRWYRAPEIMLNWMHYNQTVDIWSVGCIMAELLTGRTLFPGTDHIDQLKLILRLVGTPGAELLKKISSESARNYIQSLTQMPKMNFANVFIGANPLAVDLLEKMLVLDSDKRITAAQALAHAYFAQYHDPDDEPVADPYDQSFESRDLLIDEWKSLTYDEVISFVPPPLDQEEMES
MAPK14 (human), sequence (Q16539 whole entry, looked up): as above
ROCK2 (human), sequence (O75116 whole entry, looked up): as the sequence (O75116 whole entry, looked up) above

One may read the inhibition as the change of the read-out against control, counted positive when it falls. What is called IC50 is the concentration at which inhibition is half-maximal. Lower therefore signals greater potency in that assay. With `O=C(NCc1ccc(S(=O)(=O)N2CCC(n3nnc4ccccc43)CC2)s1)c1ccc(Cl)cc1`, the inhibition on CDK2 (human) is 1%; on ROCK2 (human), -1%. This compound registered an IC50 at MAPK14 [1] of more than 30 µM. Regarding `N#Cc1cnc2cc3nc[nH]c3cc2c1Nc1cccc(Br)c1`, the IC50 at EGFR [2] turned out to be 0.0015 µM. As to `O=C1NC(=O)/C(=C/c2ccc3c(c2)OCO3)S1`, the inhibition in the assay with PIK3CG (murine) is 100%. In turn, `CN1CCN(CC2COc3cc4ncnc(Nc5cccc(Br)c5)c4cc3O2)CC1` (centres undefined) showed an IC50 against EGFR (human) [3] of 0.058 µg/mL (≈ 0.123 µM). Turning to `C[Si](C)(C)CCOCn1c(CCCCO)nc(-c2ccncc2)c1-c1ccc(F)cc1`, the inhibition at MAPK14 (human) [4] stood at 0%. On to `C=CC(=O)Nc1ccc2sc3c(Nc4cccc(Br)c4)c(C#N)cnc3c2c1`, for which the IC50 on EGFR [2] stood at 10 µM. With `C=CC(=O)Nc1cccc(Nc2nc(NCc3cnn(C)c3)ncc2Cl)c1`, in assay [5], the IC50 was in the range of 0.01 to 0.1 µM. `O=C(CCCNc1ncc(C(F)(F)F)cc1Cl)NNS(=O)(=O)c1ccc(CNC(=O)c2ccccc2O)s1`: the IC50 on MAPK14 [6] was more than 30 µM.

`CN(C)C(=O)[C@@H]1CCCN1Cc1ccc(-c2cc3c(Nc4ccc(OCc5ccccc5)cc4)ncnc3cn2)o1` displayed a half-maximal inhibitory concentration (IC50) against EGFR (human) [7] of 3.3 µM. As to `OCCN(CCO)CC1COc2cc3ncnc(Nc4cccc(Br)c4)c3cc2O1` (centres undefined), the IC50 at EGFR (human) [3] came out at 0.021 µg/mL (≈ 0.0442 µM).

The compound `CCOC(=O)CN1CCC[C@H]1COc1cc2c(Nc3cccc(Br)c3)ncnc2cc1OC` returned an IC50 with EGFR (murine) of 0.02 µM. Take `NC(=O)c1cccn(Cc2ccc(S(=O)(=O)NNC(=O)CCCNc3ncc(C(F)(F)F)cc3Cl)s2)c1=O`: the IC50 against MAPK14 [6] was more than 30 µM.

As for `NC(=O)c1c(NC(=O)Nc2ccccc2)sc2cc(O)ccc12`, the inhibition on ROCK2 and against EGFR [8] was more than 50% throughout. Take `COc1ccc2c(-c3ccncc3)c(-c3ccc(F)cc3)[nH]c2c1`: at MAPK14 (human) [4], the IC50 was 0.4 µM. For `O=C(NCc1ccc(S(=O)(=O)N2CCN(c3ncccn3)CC2)s1)c1ccc(Cl)cc1`, the IC50 at MAPK14 [1] was more than 30 µM. Regarding `CN(CC(N)=O)Cc1ccc(-c2cc3c(Nc4ccc(OCc5ccccc5)cc4)ncnc3cn2)o1`, the IC50 against EGFR (human) [7] worked out at 0.35 µM. `N=C1NC(=O)/C(=C/c2ccc3nccnc3c2)S1`: the inhibition in the assay on PIK3CG (murine) came to 100%. At EGFR [2], `N#Cc1cnc2c(sc3ccc([N+](=O)[O-])cc32)c1Nc1cccc(Br)c1` returned an IC50 of 10 µM. Compound `CN(C)CCCC(=O)N1CCOc2cc3ncc(C#N)c(Nc4ccc(F)c(Cl)c4)c3cc21` yielded an IC50 against EGFR [9] of 0.2 µM.

As for `COc1nccc(-c2cccnc2-c2ccc(F)cc2)n1`, on MAPK14 [10], the IC50 was less than 50 µM. In turn, `OCc1ccc(-c2cc3c(Nc4ccc(OCc5ccccc5)cc4)ncnc3cn2)o1` gave a half-maximal inhibitory concentration (IC50) at EGFR (human) [7] of 0.46 µM. Regarding `Cn1c(SSc2c(C(=O)Nc3ccccc3)c3cccnc3n2C)c(C(=O)Nc2ccccc2)c2cccnc21`, the IC50 with EGFR (mouse) is more than 25 µM. In the case of `CN(C)CCCCN1CCOc2cc3ncc(C#N)c(Nc4ccc(F)c(Cl)c4)c3cc21`, the IC50 on EGFR [9] is 0.005 µM.

At MAPK14 (human) [4], `Nc1ccc2c(-c3ccncc3)c(-c3ccc(F)cc3)[nH]c2c1` showed a half-maximal inhibitory concentration (IC50) of 0.2 µM. `C=CC(=O)Nc1cccc(Nc2nc(Nc3cn(C)nc3C)ncc2Cl)n1` came in with an IC50 in [5] of 0.01 to 0.1 µM. The compound `N#Cc1cnc2c(sc3ccc(N)cc32)c1Nc1cccc(Br)c1` registered an IC50 against EGFR [2] of 10 µM. In assay [5], `C=CC(=O)Nc1ccc(F)c(Nc2nc(Nc3cn(C)nc3C)ncc2Cl)c1` had an IC50 of less than 0.01 µM.

Regarding `O=C(NCc1ccc(S(=O)(=O)N2CCC(C(=O)c3ccc(F)cc3F)CC2)s1)c1ccc(Cl)cc1`, on MAPK14 [1], the IC50 is more than 30 µM. As to `O=C(NCc1ccc(S(=O)(=O)NNC(=O)c2csc(-c3ccc(C4SCCS4)cc3)n2)s1)c1ccc(Cl)cc1`, the half-inhibitory concentration (IC50) against MAPK14 [11] and on MAPK14 [6] was more than 30 µM in each case. As to `O=C1NC(=O)/C(=C/c2ccc3nsnc3c2)S1`, in the assay on PIK3CG (murine), the inhibition came out at 100%. At MAPK14 [10], `Cc1ccccc1Nc1nccc(-c2cccnc2-c2ccc(F)cc2)n1` displayed an IC50 of less than 50 µM.

`Brc1cccc(Nc2ncnc3cc4c(cc23)OC(CN2CCOCC2)CO4)c1` (centres undefined) yielded a 50% inhibitory concentration (IC50) at EGFR (human) [3] of 0.046 µg/mL (≈ 0.101 µM).

As for `Nc1nccc(-c2cccnc2-c2ccc(F)cc2)n1`, the IC50 against MAPK14 [10] is less than 50 µM.

Compound `Cn1c(SSc2c(C(=O)Nc3ccccc3)c3ccccc3n2C)c(C(=O)Nc2ccccc2)c2ccccc21` showed an IC50 with EGFR (mouse) of more than 100 µM.

On MAPK14 (human) [12], `Cc1ccccc1Cc1ccc(Nc2ccc(F)cc2C)cc1Cl` returned an IC50 of more than 100 µM. As a reminder, the LD50 is the dose expected to kill half of the subjects tested. Lower therefore signals greater toxicity. On to `Cc1ccc2ncnc(Nc3cccc(Cl)c3)c2c1`, for which, in the assay with EGFR (Balb/c mice), the LD50 was more than 400 mg/kg. Turning to `O=C1NC(=O)/C(=C/c2ccc3ncnc(N4CCCCC4)c3c2)S1`, the inhibition in the assay with PIK3CG (murine) turned out to be 100%. Regarding `CS(=O)(=O)NCCNCc1ccc(-c2cc3c(Nc4ccc(OCc5ccccc5)cc4)ncnc3cn2)o1`, the half-maximal inhibitory concentration (IC50) at EGFR (human) [7] stood at 0.72 µM.

`CN1C(=S)C(C(=O)Nc2ccccc2)c2ccccc21` (centres undefined) displayed an IC50 with EGFR (mouse) of more than 100 µM.

In turn, `Fc1ccc(-c2[nH]c3ccccc3c2-c2ccncc2)cc1` gave an IC50 on MAPK14 (human) [4] of more than 10 µM. In the case of `O=C(CCCNc1ncc(C(F)(F)F)cc1Cl)NNS(=O)(=O)c1ccc(CNC(=O)c2ccc(Cl)cc2)cc1`, the IC50 against MAPK14 [11] and on MAPK14 [6] was more than 30 µM in each case. On to `CCOC(=O)CN1CCN(CCCOc2cc3c(Nc4cccc(Br)c4)ncnc3cc2OC)C(O)C1` (centres undefined), for which the IC50 with EGFR (murine) is 0.033 µM. Turning to `C=CC(=O)N[C@H]1CCC[C@@H](Nc2nc(Nc3cnn(C)c3)ncc2Cl)C1`, the IC50 in [5] was in the range of 0.01 to 0.1 µM. `O=C(NCc1ccc(S(=O)(=O)N2CCC(Nc3cccc(S(=O)(=O)C(F)(F)F)c3)CC2)s1)c1ccc(Cl)cc1` came in with an IC50 against MAPK14 [1] of more than 30 µM. Take `N#C/C(=C1/Nc2ccccc2S1)c1ccnc(NCCc2cccnc2)n1`: the IC50 is more than 10 µM against PIK3CG and 5 to 10 µM against ROCK2. Turning to `CCOC(=O)CN(CCOc1cc2c(Nc3cccc(Br)c3)ncnc2cc1OC)CC(=O)OCC`, in the assay with EGFR (murine), the IC50 was 0.07 µM. Regarding `C=CC(=O)N[C@@H]1CCCC[C@H](Nc2nc(Nc3cnn(C)c3)ncc2Cl)C1`, in assay [5], the IC50 lay in the range of 0.01 to 0.1 µM. `N#Cc1cnc2cc3c(cc2c1Nc1ccc(F)c(Cl)c1)N(C(=O)/C=C/CBr)CCO3.N#Cc1cnc2cc3c(cc2c1Nc1ccc(F)c(Cl)c1)N(C(=O)/C=C/CCl)CCO3` showed an IC50 at EGFR [9] of 1 µM. In addition, the inhibition at EGFR [9] (concentration not given here) was found to be 29.9%.

As to `COC(=O)CCC1CN(CC(=O)OC)CCN1CCOc1cc2c(Nc3cccc(Br)c3)ncnc2cc1OC` (centres undefined), in the assay with EGFR (murine), the IC50 is 0.077 µM. Compound `Fc1ccc(-c2ncccc2-c2ccnc(Oc3ccccc3)n2)cc1` gave an IC50 at MAPK14 [10] of less than 50 µM.

Consider `NC(=O)[C@H]1CCCN1Cc1ccc(-c2cc3c(Nc4ccc(OCc5ccccc5)cc4)ncnc3cn2)o1`, for which the IC50 against EGFR (human) [7] was 0.35 µM. `O=C(NCc1ccc(S(=O)(=O)N2CCN(C(=O)N3C=Cc4oncc4C3)CC2)s1)c1ccc(Cl)cc1`: at MAPK14 [1], the half-inhibitory concentration (IC50) was more than 30 µM. Turning to `CSc1nccc(-c2cccnc2-c2ccc(F)cc2)n1`, the IC50 against MAPK14 [10] is less than 50 µM. Consider `NS(=O)(=O)c1ccc(Nc2nc(OCC3CCCCC3)c3nc[nH]c3n2)cc1`, for which the IC50 against ROCK2 worked out at 0.6 µM.

With `CC(=O)OCCCCc1nc(-c2ccncc2)c(-c2ccc(F)cc2)n1COCC[Si](C)(C)C`, the inhibition against MAPK14 (human) [4] turned out to be 0%. `COc1ccc2c(C(=O)Nc3ccccc3)c(SSc3c(C(=O)Nc4ccccc4)c4ccc(OC)cc4n3C)n(C)c2c1` gave an IC50 with EGFR (mouse) of more than 100 µM. On to `CCOC(=O)CN(C)CCOc1cc2c(Nc3cccc(Br)c3)ncnc2cc1OC`, for which the IC50 with EGFR (murine) is 0.1 µM. `Oc1cc2nc(-c3cccs3)c(-c3cccs3)nc2cc1O`: on ROCK2, the inhibition was -18%. As for `OCCNCC1COc2cc3ncnc(Nc4cccc(Br)c4)c3cc2O1` (centres undefined), the IC50 against EGFR (human) [3] came out at 0.022 µg/mL (≈ 0.051 µM). `O=C(NCc1ccc(S(=O)(=O)NNC(=O)c2csc(COc3ccccc3Cl)n2)s1)c1ccc(Cl)cc1`: the IC50 against MAPK14 [11] and against MAPK14 [6] was more than 30 µM in each case. In the case of `COc1cccc2c(C(=O)Nc3ccccc3)c(SSc3c(C(=O)Nc4ccccc4)c4cccc(OC)c4n3C)n(C)c12`, the IC50 in the assay with EGFR (mouse) is more than 100 µM.

The values above are taken from the Kinase Knowledgebase extract (Sharma et al. 2016).
